Experimental data as given in PMC12865225 (Clinical and Translational Science, 2026).
Like-named read-outs stand apart in the source and are kept apart here. Marks after values point to notes of the source that are not given here.

Columns and labels:
[1] = cited from earlier work; for Total CL: mean value from IV studies
[2] = biological target: T1, OAT3 (Homo sapiens, UniProt Q8TCC7); experiment: OAT3 inhibition, fluorescein uptake into HEK293 cells; assay type: cell-based; design: expressed in transfected cells; host or cells: HEK293 (recombinant baculovirus-mediated transduction); details: R = I max,u/IC50, FDA cut-off ≥ 0.1
T1 sequence (Q8TCC7 1-542): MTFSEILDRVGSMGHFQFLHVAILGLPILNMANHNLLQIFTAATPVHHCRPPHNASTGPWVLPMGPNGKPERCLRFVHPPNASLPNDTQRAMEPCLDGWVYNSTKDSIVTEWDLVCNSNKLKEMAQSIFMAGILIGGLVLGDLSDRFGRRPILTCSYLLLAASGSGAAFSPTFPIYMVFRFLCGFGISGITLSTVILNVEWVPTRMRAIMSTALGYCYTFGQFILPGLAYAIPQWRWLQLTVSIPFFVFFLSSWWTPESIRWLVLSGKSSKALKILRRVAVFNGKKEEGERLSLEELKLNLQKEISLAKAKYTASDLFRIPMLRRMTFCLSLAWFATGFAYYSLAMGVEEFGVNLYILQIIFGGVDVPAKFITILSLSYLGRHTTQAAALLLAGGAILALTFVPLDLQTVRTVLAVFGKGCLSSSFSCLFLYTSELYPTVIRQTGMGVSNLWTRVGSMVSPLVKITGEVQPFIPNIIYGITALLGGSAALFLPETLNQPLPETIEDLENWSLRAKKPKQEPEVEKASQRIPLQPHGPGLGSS
Experimental: The human transporters OATP1B1, OATP1B3, OATP2B1, and OAT1‐OAT4 and a negative control protein (enhanced yellow fluorescent protein, eYFP) were transiently expressed in human embryonic kidney 293 (HEK293) cells by recombinant baculovirus‐mediated transduction. Baculoviruses carrying human genes for the transporters were prepared as reported previously. HEK293 cells were cultured in DMEM containing 10% fetal bovine serum at 37°C and 5% CO2 and passaged two to three times per week. For the transport studies, 0.05 × 10^6 cells for 48‐well plates (OATPs) or 0.06 × 10^6 cells for 24‐well plates (OATs) were seeded onto cell‐culture treated well plates coated with poly‐D‐lysine. […]
In the OATP inhibition assays, inhibitors in warm TP‐buffer were directly applied to cells after media removal, followed by a 30‐min preincubation step in the presence of inhibitors. […] OAT1 and OAT3 cells were lysed with 200 μL of 1 M sodium hydroxide for 10 min, and 150 μL of these samples were transferred to a black well plate for fluorescein quantification. […]
For the inhibition data analysis, the average of measured concentrations in the control cells was subtracted from the average of measured concentrations in transporter‐expressing cells for each inhibitor concentration and then normalized to the vehicle sample that represents 100% transport activity. […]

[3] = 6.25 mg/kg PO, ref Jusko et al. 1975 11
[4] = 250 mg IV, ref DeSante et al. 1980 7
[5] = 250 mg PO, ref Sutherland et al. 1970 10
[6] = 500 mg PO, ref Beringer et al. 2008 12
[7] = 500 mg PO, ref Gravenkemper et al. 1965 13
[8] = 500 mg PO, ref Røder et al. 1995 14
[9] = 750 mg PO, ref Røder et al. 1995 14
[10] = 1000 mg PO, ref Gravenkemper et al. 1965 13
[11] = 1000 mg PO, ref Putnam et al. 2005 9
[12] = 1000 mg PO, ref Røder et al. 1995 14
[13] = 125 mg PO, ref Sutherland et al. 1970 10
[14] = 250 mg PO, ref Bodey et al. 1972 20
[15] = 500 mg IV, ref Landersdorfer et al. 2007 15
[16] = 500 mg IV, ref Landersdorfer et al. 2008 17
[17] = 500 mg PO, ref Bodey et al. 1972 20
[18] = 1000 mg IV, ref Adam et al. 1983 18
[19] = 1000 mg IV, ref Landersdorfer et al. 2007 15
[20] = 1000 mg IV, ref Landersdorfer et al. 2008 17
[21] = 1000 mg IV, ref Wise et al. 1980 19
[22] = 1000 mg PO MD (day 9), ref Iversen et al. 2023 22
[23] = 1000 mg PO MD (day 27), ref Iversen et al. 2023 22
[24] = 1000 mg PO SD, ref Iversen et al. 2023 22
[25] = 1000 mg PO, ref Everts et al. 2020 16
[26] = 1000 mg PO, ref Gardiner et al. 2018 21

In the case of Cc1onc(-c2c(Cl)cccc2Cl)c1C(=O)N[C@@H]1C(=O)N2[C@@H]1SC(C)(C)[C@@H]2C(=O)O [Dicloxacillin], the “AUC (mg*h/l) Obs” value [1, 3] is listed as 33.8 mg·h/L, the “Cmax (mg/l) Obs” value [1, 3] is listed as 18.4 mg/L and the “AUC (mg*h/l) Obs” value [1, 4] is listed as 23.8 mg·h/L. The “Cmax (mg/l) Obs” value [1, 4] was 56.5 mg/L, the “AUC (mg*h/l) Obs” value [1, 5] was 19.1 mg·h/L and the “Cmax (mg/l) Obs” value [1, 5] was 11.0 mg/L. The “AUC (mg*h/l) Obs” value [1, 6] was 36.6 mg·h/L, the “Cmax (mg/l) Obs” value [1, 6] was 11.1 mg/L and the “AUC (mg*h/l) Obs” value [1, 7] was 41.1 mg·h/L. The “Cmax (mg/l) Obs” value [1, 7] was 17.4 mg/L, the “AUC (mg*h/l) Obs” value [1, 8] was 30.8 mg·h/L and the “Cmax (mg/l) Obs” value [1, 8] was 17.3 mg/L. For the same molecule, the “AUC (mg*h/l) Obs” value [1, 9] was 66.8 mg·h/L, the “Cmax (mg/l) Obs” value [1, 9] was 34.4 mg/L and the “AUC (mg*h/l) Obs” value ([1]; 1000 mg IV, ref Nauta and Mattie 1976 8) was 114 mg·h/L. For the same molecule, the “AUC (mg*h/l) Obs” value [1, 10] was 72.4 mg·h/L, the “Cmax (mg/l) Obs” value [1, 10] was 28.9 mg/L and the “AUC (mg*h/l) Obs” value [1, 11] was 78.0 mg·h/L. For the same molecule, the “Cmax (mg/l) Obs” value [1, 11] was 31.4 mg/L, the “AUC (mg*h/l) Obs” value [1, 12] was 82.5 mg·h/L and the “Cmax (mg/l) Obs” value [1, 12] was 30.7 mg/L. For the same molecule, the “fraction absorbed, range reported” value ([1]; dicloxacillin capsules) was 35 – 76%, the “Total CL” value [1] was 8.885 L/h and the “Calculated R-value OAT3” value [2] was 0.07 ^c.
For Cc1onc(-c2c(F)cccc2Cl)c1C(=O)N[C@@H]1C(=O)N2[C@@H]1SC(C)(C)[C@@H]2C(=O)O [Flucloxacillin], the “AUC (mg*h/l) Obs” value [1, 13] is given as 8.28 mg·h/L, the “Cmax (mg/l) Obs” value [1, 13] is given as 5.8 mg/L and the “AUC (mg*h/l) Obs” value [1, 14] is given as 14.6 mg·h/L. For the same molecule, the “Cmax (mg/l) Obs” value [1, 14] was 5.7 mg/L, the “AUC (mg*h/l) Obs” value [1, 5] was 14.4 mg·h/L and the “Cmax (mg/l) Obs” value [1, 5] was 11.0 mg/L. For the same molecule, the “AUC (mg*h/l) Obs” value [1, 15] was 60.9 mg·h/L, the “Cmax (mg/l) Obs” value [1, 15] was 86.8 mg/L and the “AUC (mg*h/l) Obs” value [1, 16] was 54.8 mg·h/L. For the same molecule, the “Cmax (mg/l) Obs” value [1, 16] was 87.7 mg/L, the “AUC (mg*h/l) Obs” value [1, 17] was 29.1 mg·h/L and the “Cmax (mg/l) Obs” value [1, 17] was 11.4 mg/L. For the same molecule, the “Cmax (mg/l) Obs” value ([1]; 500 mg PO, ref Sutherland et al. 1970 10) was 14.7 mg/L, the “AUC (mg*h/l) Obs” value [1, 9] was 67.8 mg·h/L and the “Cmax (mg/l) Obs” value [1, 9] was 34.5 mg/L. For the same molecule, the “AUC (mg*h/l) Obs” value [1, 18] was 141 mg·h/L, the “Cmax (mg/l) Obs” value [1, 18] was 236 mg/L and the “AUC (mg*h/l) Obs” value [1, 19] was 122 mg·h/L. For the same molecule, the “Cmax (mg/l) Obs” value [1, 19] was 167 mg/L, the “AUC (mg*h/l) Obs” value [1, 20] was 113 mg·h/L and the “Cmax (mg/l) Obs” value [1, 20] was 173 mg/L. For the same molecule, the “AUC (mg*h/l) Obs” value [1, 21] was 73.6 mg·h/L, the “Cmax (mg/l) Obs” value [1, 21] was 140 mg/L and the “AUC (mg*h/l) Obs” value [1, 22] was 56 mg·h/L. The “Cmax (mg/l) Obs” value [1, 22] was 20 mg/L, the “AUC (mg*h/l) Obs” value [1, 23] was 64 mg·h/L and the “Cmax (mg/l) Obs” value [1, 23] was 24 mg/L. For the same molecule, the “AUC (mg*h/l) Obs” value [1, 24] was 51 mg·h/L, the “Cmax (mg/l) Obs” value [1, 24] was 21 mg/L and the “AUC (mg*h/l) Obs” value [1, 25] was 82 mg·h/L. The “Cmax (mg/l) Obs” value [1, 25] was 31 mg/L, the “AUC (mg*h/l) Obs” value [1, 26] was 71.6 mg·h/L and the “Cmax (mg/l) Obs” value [1, 26] was 27.4 mg/L. For the same molecule, the ka reported range [1] was 0.17 to 18.2 h⁻¹, the “CLR” value ([1]; mean from reported IV studies) was 5.1 L/h and the “Total CL” value [1] was 7.75 L/h. For the same molecule, the “Calculated R-value OAT3” value [2] was 0.1 ^c.
